Measured values from patent US9867827B1, “Methods and formulations for topical treatment of psoriasis” (Florida A&M University, priority 2015, dated 2018).
Entries after “also recorded” stand apart in the source; their conditions may differ.

How the values were obtained:
[1] = test system: IMQ-induced psoriatic-like plaques; conditions: after five treatments, topical
Description: (§3) Briefly, IMQ cream was applied topically to the shaven dorsal regions of C57BL/6 mice (4 mg/day/animal) to form psoriatic-like plaques. […] The CPC-urea gels containing the foregoing formulations were applied to the inflamed dorsal regions of the animals for five (5) consecutive days.
The TEWL was estimated using DELFIN VAPOMETER (DELFIN Technologies Ltd, Finland) as a measure of the extent of skin damage and healing with each day of treatment. The device was placed gently on the dorsal region of the mice each day of treatment and the value corresponding to water loss was recorded.

[2] = test system: IMQ-induced psoriatic-like plaques; conditions: after five treatments
Description: as §3
A clinical scoring method for the PASI was used daily to score the severity of the inflammation induced on the dorsal regions of the mice, based on the extent of erythema, scaling, and epidermal thickening. The PASI score was assigned daily after initiating treatment on a scale of 0 to 4, where 0 indicated no inflammation, 1 indicated slight inflammation, 2 indicated moderate inflammation, 3 indicated marked inflammation, and 4 indicated very severe inflammation.

[3] = test system: IL17; experiment: Western blot analysis of skin samples, IL17; assay type: in vivo, C57BL/6 mice; conditions: compared to the TOPGRAF group, p<0.05
Description: (§1) At the end of the study, skin samples were harvested and analyzed for inflammatory proteins by immunohistochemistry and western blot analyses.
(§2) For western blot analysis, skin samples were minced in lysis cocktail composed of RIPA lysis buffer, protease inhibitor (PI) and phenylmethylsulfonyl fluoride (PMSF). BCA Protein Assay Reagent Kit was used to estimate the protein concentration per the manufacturer's protocol. 50 μg of the extracted protein for each sample was loaded into a gel and subjected to SDS-polyacrylamide electrophoresis (SDS-PAGE). The blots were incubated with primary antibodies for TNFα, NFkB, IL23, IL17, and β-actin and subsequently detected with Horseradish peroxidase-conjugated secondary antibodies using a SUPERSIGNAL WEST PICO Chemiluminescent Substrate (Pierce, Rockford, Ill., USA) and BIORAD CHEMIDOC XRS+ imaging system (Hercules, Calif., USA).

[4] = test system: TNFα; experiment: Western blot analysis of skin samples, TNFα; assay type: in vivo, C57BL/6 mice; conditions: compared to the TOPGRAF group, p<0.05
Description: The animals were then treated by applying cetylpyridinum chloride (CPC)-urea gel containing blank formulation as negative control, pemetrexed formulation, siTNFα formulation, pemetrexed-siTNFα combination formulation, or a known tacrolimus cream (TOPGRAF) as a positive control.
as §2, with “S[…]” for “SUPERSIGNAL WEST”

[5] = test system: IL23; experiment: Western blot analysis of skin samples, IL23; assay type: in vivo, C57BL/6 mice; conditions: compared to the TOPGRAF group, p<0.05
Description: as §1, §2

[6] = test system: NFkB; experiment: Western blot analysis of skin samples, NFkB; assay type: in vivo, C57BL/6 mice; conditions: compared to the TOPGRAF group, p<0.05
Description: as §1, §2

## Nc1nc2[nH]cc(CCc3ccc(C(=O)N[C@@H](CCC(=O)O)C(=O)O)cc3)c2c(=O)[nH]1 [pemetrexed]
[1]
  TEWL compared to tacrolimus cream (TOPGRAF): better TEWL
[2]; topical
  PASI score compared to tacrolimus cream (TOPGRAF): better PASI score; also recorded: superior
  erythema and scaling compared to other groups: significant reduction in erythema and scaling
[2]; topical CPC-urea gel, scale of 0 to 4
  PASI score: ~0
[2]; topical, b57 compared to TOPGRAF
  psoriatic plaque: reduction in psoriatic plaque
[3]
  expression of IL17 (western blot): significant reduction; also recorded: decreased expressions
[4]
  expression of TNFα (western blot): significant reduction
[5]
  expression of IL23 (western blot): significant reduction; also recorded: decreased expressions
[6]
  expression of NFKB (western blot): significant reduction
